Patent US12404241B2 (Celgene Corporation, priority 2018, dated 2025)
Counter-ions that a name gives are not always drawn.

Target: T1, AR (Homo sapiens, UniProt P10275)
T1 construct: endogenous in cells; host or cells: VCaP cells
T1 sequence (P10275 1-920): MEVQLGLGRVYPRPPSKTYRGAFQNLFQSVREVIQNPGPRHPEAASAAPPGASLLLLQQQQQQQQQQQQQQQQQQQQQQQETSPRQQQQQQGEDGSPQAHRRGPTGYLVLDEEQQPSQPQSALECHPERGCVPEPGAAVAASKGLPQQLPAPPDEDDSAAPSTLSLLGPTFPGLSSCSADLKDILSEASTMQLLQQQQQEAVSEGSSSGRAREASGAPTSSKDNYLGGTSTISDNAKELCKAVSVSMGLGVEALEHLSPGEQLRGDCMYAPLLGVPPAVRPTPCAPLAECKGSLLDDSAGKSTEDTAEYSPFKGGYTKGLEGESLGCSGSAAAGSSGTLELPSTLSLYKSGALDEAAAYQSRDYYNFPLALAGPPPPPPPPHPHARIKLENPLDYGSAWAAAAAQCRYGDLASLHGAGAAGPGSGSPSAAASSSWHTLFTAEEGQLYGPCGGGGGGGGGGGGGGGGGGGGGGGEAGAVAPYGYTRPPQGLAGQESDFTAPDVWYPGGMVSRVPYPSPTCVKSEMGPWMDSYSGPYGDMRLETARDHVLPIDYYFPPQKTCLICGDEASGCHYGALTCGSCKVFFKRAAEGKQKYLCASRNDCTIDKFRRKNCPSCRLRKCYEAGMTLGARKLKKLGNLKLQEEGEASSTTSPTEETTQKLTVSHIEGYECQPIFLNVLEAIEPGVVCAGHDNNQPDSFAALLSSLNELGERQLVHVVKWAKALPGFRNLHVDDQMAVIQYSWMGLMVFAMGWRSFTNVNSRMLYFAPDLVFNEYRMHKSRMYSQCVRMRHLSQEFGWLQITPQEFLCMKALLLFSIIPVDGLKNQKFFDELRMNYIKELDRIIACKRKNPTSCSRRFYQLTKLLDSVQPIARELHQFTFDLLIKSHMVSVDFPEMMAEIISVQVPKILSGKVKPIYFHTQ
Assay: VCAP AR Degradation Assay
Format: cell-based
Conditions: for Y (AR degradation efficiency, % of DMSO control): class symbols *; for DC50: class symbols A-C, read-out: DC50
How it was run: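 Compounds were plated as 10-point 1:3 series reaching 5 μM final, then VCaP cells were seeded onto them and incubated 24 h at 37 °C. Cells were lysed cold, and total AR was measured by sandwich ELISA relative to 0.1% DMSO wells.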

| SMILES | Y (AR degradation efficiency, % of DMSO control) | DC50 |
| --- | --- | --- |
| C[C@H](C(=O)Nc1cccc(NC2CCC(=O)NC2=O)c1)N1CCN(CCOc2ccc(N3C(=S)N(c4ccc(C#N)c(C(F)(F)F)c4)C(=O)C3(C)C)cc2Cl)CC1 (some centres unmarked) [Example 25, hydrochloride] | *** (35%<Y<50%) | < 100 nM |
| C[C@@H]1CN(CCOc2ccc(N3C(=S)N(c4ccc(C#N)c(Cl)c4)C(=O)C3(C)C)cc2C2CC2)C[C@H](C)N1CC(=O)Nc1cccc(NC2CCC(=O)NC2=O)c1 (stereo partly drawn) [Example 206, 2-((2S,6R)-4-(2-(4-(3-(3-chloro-4-cyanophenyl)-5,5-dimethyl-4-oxo-2-thioxoimidazolidin-1-yl)-2-cyclopropylphenoxy)ethyl)-2,6-dimethylpiperazin-1-yl)-N-(3-(2,6-dioxopiperidin-3-ylamino)phenyl)acetamide] | * (0<Y<=25%) | < 100 nM |
| CCc1cc(N2C(=S)N(c3ccc(C#N)c(C(F)(F)F)c3)C(=O)C2(C)C)ccc1OCCN1C[C@@H](C)N(CC(=O)Nc2cc(Cl)cc(NC3CCC(=O)NC3=O)c2)[C@H](C)C1 (stereo partly drawn) [Example 130, N-(3-chloro-5-(2,6-dioxopiperidin-3-ylamino)phenyl)-2-((2R,6R)-4-(2-(4-(3-(4-cyano-3-(trifluoromethyl)phenyl)-5,5-dimethyl-4-oxo-2-thioxoimidazolidin-1-yl)-2-ethylphenoxy)ethyl)-2,6-dimethylpiperazin-1-yl)acetamide] | * (0<Y<=25%) | < 100 nM |
| CCc1cc(N2C(=S)N(c3cnc(C#N)c(C(F)(F)F)c3)C(=O)C2(C)C)ccc1OCCN1CCN(CC(=O)Nc2cccc(NC3CCC(=O)NC3=O)c2)C(C)(C)C1 (centres unmarked) [Example 97, 2-(4-(2-(4-(3-(6-cyano-5-(trifluoromethyl)pyridin-3-yl)-5,5-dimethyl-4-oxo-2-thioxoimidazolidin-1-yl)-2-ethylphenoxy)ethyl)-2,2-dimethylpiperazin-1-yl)-N-(3-(2,6-dioxopiperidin-3-ylamino)phenyl)acetamide] | * (0<Y<=25%) | < 100 nM |
| CCc1cc(N2C(=S)N(c3ccc(C#N)c(C(F)(F)F)c3)C(=O)C2(C)C)ccc1OCCN1C[C@@H](C)N(CC(=O)Nc2cccc(NC3CCC(=O)NC3=O)c2)[C@@H](C)C1 (stereo partly drawn) [Example 150, 2-((2S,6R)-4-(2-(4-(3-(4-cyano-3-(trifluoromethyl)phenyl)-5,5-dimethyl-4-oxo-2-thioxoimidazolidin-1-yl)-2-ethylphenoxy)ethyl)-2,6-dimethylpiperazin-1-yl)-N-(3-(2,6-dioxopiperidin-3-ylamino)phenyl)acetamide] | * (0<Y<=25%) | < 100 nM |
| CC(C)c1cc(N2C(=S)N(c3ccc(C#N)c(C(F)(F)F)c3)C(=O)C2(C)C)ccc1OCCN1C[C@@H](C)N(CC(=O)Nc2cc(F)cc(NC3CCC(=O)NC3=O)c2)[C@@H](C)C1 (stereo partly drawn) [Example 213, 2-((2S,6R)-4-(2-(4-(3-(4-cyano-3-(trifluoromethyl)phenyl)-5,5-dimethyl-4-oxo-2-thioxoimidazolidin-1-yl)-2-isopropylphenoxy)ethyl)-2,6-dimethylpiperazin-1-yl)-N-(3-(2,6-dioxopiperidin-3-ylamino)-5-fluorophenyl)acetamide] | * (0<Y<=25%) | < 100 nM |
| CCc1cc(N2C(=S)N(c3ccc(C#N)c(C(F)(F)F)c3)C(=O)C2(C)C)ccc1OCCN1CCN(CC(=O)Nc2cccc(N[C@H]3CCC(=O)NC3=O)c2)[C@H](C)C1 [Example 111, 2-((R)-4-(2-(4-(3-(4-cyano-3-(trifluoromethyl)phenyl)-5,5-dimethyl-4-oxo-2-thioxoimidazolidin-1-yl)-2-ethylphenoxy)ethyl)-2-methylpiperazin-1-yl)-N-(3-((S)-2,6-dioxopiperidin-3-ylamino)phenyl)acetamide] | * (0<Y<=25%) | < 100 nM |
